Consider two molecules from patent publication US11090317B2, “Aminophosphinic derivatives for preventing and treating eye inflammation” (priority 2017, dated 2021).

Experiment [1] relates to ATF3 (activating transcription factor 3). Briefly: ATF3 immuno-histology in trigeminal ganglion, inflammatory keratitis model induced by LPS. The note with it: LPS inflammation model; twice-daily instillation of 10 mM for 5 days. It is filed as in vivo, mice. The source says: (§1) ATF3 (activating transcription factor 3) is a transcription factor of the family of ATF which modulates the inflammatory response of several diseases. In physiological conditions, the primary sensory neurones express very little ATF3. An increase in the number of positive neurones for ATF-3 then underlines neuronal suffering linked to an inflammatory process. In the same way, Iba1 (ionized calcium-binding adapter molecule 1) is expressed in the microglial cells activated by the presence of macrophages and thus by an inflammatory process.
(§2) Two hours after the final instillation of LPS, a mixture of 300 μL of ketamine […] (100 mg/kg of body weight) and xylazine (10 mg/kg of body weight, Virbac, France) was injected by intraperitoneal route to deeply anaesthetise the animals. After fixation, the trigeminal ganglia and the eyes were carefully dissected and post-fixated for 48 h in the same fixation mixture. Sections (40 μm) of the complex of the trigeminal sub-nucleus ([…]) were formed using a Vibratom (Leica Microsystems, Germany). The TG were placed in a 10% solution of sucrose in 1×PBS (overnight), then in a 30% solution of sucrose before freezing at −20° C. in a mixture of 7.5% gelatine and 10% sucrose. Sections (14 μm) were made in the cryostat for the TG and the eyes and conserved at −20° C. […]

For experiment [2], the system named is Iba1 (ionized calcium binding adaptor molecule 1). Briefly: Iba1 immuno-histology in trigeminal ganglion, inflammatory keratitis model induced by LPS. It is filed as in vivo, mice. The note with it: LPS inflammation model; twice-daily instillation of 10 mM for 5 days.
Description: as §1, §2

A further experiment deals with cornea. Kind of experiment: Corneal inflammation by in vivo confocal microscopy in inflammatory model induced by LPS (corneal scratch). Details: species or system mice C57Bl/6. The conditions noted are these: twice-daily instillation of 10 mM for 5 consecutive days; scratch + LPS 50 μg (1× or 2×); evaluated on the 5th day. On the procedure: A corneal epithelial lesion (abrasion designated “scratch” in the figures) is made on the right eye of male mice C57Bl/6, 8 weeks old, using a trephine (diameter 1.5 mm) on the anaesthetised animal (isoflurane). A drop (10 μl) of LPS (50 μg) is […] deposited on the injured area and is left in contact with the cornea until the animal awakens. The experimentalist ensures the animal awakens correctly, which occurs within two minutes following the intervention.
The first topical treatment using a solution of PBS (phosphate buffer pH=7.4) (1×) or a solution of compound 1 (10 mM of compound 1 in a solution of PBS (1×)) was carried out 2 h after the instillation of LPS. This treatment was extended 2 times a day for 5 days. Four animal cages were studied:
The eye inflammation of the mice was evaluated on the 5th day using a confocal microscope in vivo. This enable images to be obtained (cellular and intercellular definition) of the cornea including the corneal epithelium, the nerve plexus, the stroma and the endothelium thanks to a capsule (Tomocap)/corneal module of the apparatus placed in contact with the cornea. The morphological changes of all the cells constituting the cornea and the corneal nerves are easily observable and quantifiable. All of the animals were anaesthetised by intraperitoneal injection (ketamine 100 mg/kg and xylazine 10 mg/kg). […]

The next experiment concerns corneal epithelium. The note with it: topical administration, versus non-treated corneas, cited from earlier work.

Entries after “also recorded” stand apart in the source; their conditions may differ.

For `CC(OC(=O)N[C@@H](C)P(=O)([O-])C[C@@H](Cc1ccc(-c2ccccc2)cc1)C(=O)N[C@@H](C)C(=O)[O-])OC(=O)C(C)C.[Na+].[Na+]` (some centres unmarked) [compound 1], the “expression of ATF3 in the trigeminal ganglion versus PBS control group” value in experiment [1] is given as “considerably reduces the expression of ATF3; also recorded: reduce significantly”. The “Iba1 in the trigeminal ganglion (coloration of activated microglial cells expressing Iba-1) versus PBS control group” value in experiment [2] was “considerably reduces the coloration of activated microglial cells expressing Iba-1; also recorded: reduce significantly”. Besides, the “eye inflammation of the corneas (confocal images) compared to PBS 1×” value with cornea was “less inflammatory”.
Turning to `CN1CC[C@]23c4c5ccc(O)c4O[C@H]2[C@@H](O)C=C[C@H]3[C@H]1C5` [morphine], in the experiment with corneal epithelium (12 h after treatment), the “development of an oedema of the stroma” value is “retard the development of an oedema of the stroma”. Moreover, the “infiltration of immune cells” value in the experiment on corneal epithelium was “very few immune cells present”.
